Measured values reported in US4157392A, “Pharmacologically active substituted 1,2,4-triazines” (Diamond Shamrock Corporation, priority 1978, dated 1979).
Structures can show the parent of a compound that is named as a salt. Where two headings read alike, the source gives them in different places.

Tested on: phenylquinone writhing in mice
Test: Phenylquinone Writhing Assay (analgesia)
Assay type: in vivo, mouse (Carworth CF1 male mice)
Conditions: Mus musculus, po, read-out: Phenylquinone Writhing Assay (% Control), percent analgesia; for responders at 60 mg/kg: 60 mg/kg oral; for responders at 25 mg/kg: 25 mg/kg oral; for responders at 50 mg/kg: 50 mg/kg oral; for responders at 100 mg/kg: 100 mg/kg oral; for responders at 30 mg/kg: 30 mg/kg oral; for responders at 75 mg/kg: 75 mg/kg oral
Description: The phenylquinone writhing test was employed to evaluate analgesic activity according to the following procedure:
Phenylquinone (phenyl-p-benzoquinone, No. 7104, Eastman Organic Chemicals) is made up as a 0.02% aqueous solution in 5% ethyl alcohol. Phenylquinone solutions are made up fresh twice daily. Standard reference agents and the test compounds are dissolved or suspended in a 0.25% methylcellulose solution. A control group consisting of ten mice (Carworth CF1 male mice) are administered the 0.02% phenylquinone solution at a dose of 0.25 ml/mouse. The mice are housed individually and observed closely for ten minutes for exhibition of writhing. The onset of writhing occurs within three minutes and 100% of the mice must writhe within ten minutes. Test compounds are administered orally to groups of ten mice. The volume given is 0.01 ml/gram of body weight. Activity can be studied at 15, 30, 60, and 120 minutes after oral administration. After the designated time interval of a dose group has elapsed, the mice are challenged with phenylquinone intraperitoneally. Complete blocking of the writhing syndrom for the ten minute observation period in any one mouse is considered a positive analgesic response for that mouse. Conversely, if any mouse writhes definitely once it is considered not to be protected. The number of mice not writhing in group multiplied by ten equals percent analgesia for that dose at that time interval.

| SMILES | responders at 100 mg/kg (0.25 h, 15 Min.) [%] | responders at 100 mg/kg (0.5 h, 30 Min.) [%] | responders at 100 mg/kg (1 h, 60 Min) [%] | further results |
| --- | --- | --- | --- | --- |
| CSc1nncc(-c2cccc(Cl)c2)n1 [Example 15, 3-methylthio-5-(3'-chlorophenyl)-1,2,4-triazine] | – | – | – | responders at 60 mg/kg (0.25 h, 15 Min.): 10% |
| COc1nncc(-c2cccs2)n1 [Example 66, 3-methoxy-5-(2'-thienyl)-1,2,4-triazine] | – | – | – | responders at 25 mg/kg (0.25 h, 15 Min.): 20%; responders at 50 mg/kg (0.25 h, 15 Min.): 80%; responders at 60 mg/kg (0.25 h, 15 Min.): 100%; responders at 25 mg/kg (0.5 h, 30 Min.): 10%; responders at 50 mg/kg (0.5 h, 30 Min.): 50%; responders at 60 mg/kg (0.5 h, 30 Min.): 80%; responders at 50 mg/kg (1 h, 60 Min): 20%; responders at 60 mg/kg (1 h, 60 Min): 40% |
| NNc1nncc(-c2cccc(C(F)(F)F)c2)n1 [Example 67, 3-hydrazino-5-(3'-trifluoromethylphenyl)-1,2,4-triazine] | 10 | 60 | 40 | responders at 50 mg/kg (0.25 h, 15 Min.): 70%; responders at 25 mg/kg (0.5 h, 30 Min.): 20%; responders at 50 mg/kg (0.5 h, 30 Min.): 30%; responders at 25 mg/kg (1 h, 60 Min): 10%; responders at 50 mg/kg (1 h, 60 Min): 30% |
| COc1cccc(-c2cnnc(SC)n2)c1 [Example 68, 3-methylthio-5-(3'-methoxyphenyl)-1,2,4-triazine] | – | – | – | responders at 30 mg/kg (0.25 h, 15 Min.): 10% |
| COc1cccc(-c2cnnc(OC)n2)c1 [Example 69, 3-methoxy-5-(3'-methoxyphenyl)-1,2,4-triazine] | 10 | 20 | 10 | responders at 50 mg/kg (0.25 h, 15 Min.): 10%; responders at 50 mg/kg (0.5 h, 30 Min.): 20%; responders at 50 mg/kg (1 h, 60 Min): 20% |
| CSc1nncc(-c2ccc(Cl)s2)n1 [Example 70, 3-methylthio-5-(5'-chloro-2'-thienyl)-1,2,4-triazine] | 10 | 20 | 10 | responders at 50 mg/kg (0.25 h, 15 Min.): 10%; responders at 50 mg/kg (0.5 h, 30 Min.): 20%; responders at 50 mg/kg (1 h, 60 Min): 10% |
| CSc1nncc(-c2cccc3ccccc23)n1 [Example 71, 3-methylthio-5-(1'-naphthyl)-1,2,4-triazine] | – | 10 | 20 | – |
| CSc1nncc(-c2ccc(C)cc2)n1 [Example 72, 3-methylthio-(4'-methylphenyl)-1,2,4-triazine] | 20 | – | – | – |
| CSc1nncc(-c2ccc(Cl)cc2)n1 [Example 74, 3-methylthio-5-(4'-chlorophenyl)-1,2,4-triazine] | 10 | – | – | – |
| COc1nncc(-c2cccc(Cl)c2)n1 [Example 75, 3-methoxy-5-(3'-chlorophenyl)-1,2,4-triazine] | – | – | – | responders at 60 mg/kg (0.25 h, 15 Min.): 100%; responders at 60 mg/kg (0.5 h, 30 Min.): 90%; responders at 60 mg/kg (1 h, 60 Min): 70% |
| CSc1nnc(-c2ccco2)c(-c2ccco2)n1 [Example 76, 3-methylthio-5,6-bis-(2'-furyl)-1,2,4-triazine] | – | – | – | responders at 30 mg/kg (0.25 h, 15 Min.): 10% |
| NNc1nnc(-c2ccco2)c(-c2ccco2)n1 [Example 77, 3-hydrazino-5,6-bis-(2'-furyl)-1,2,4-triazine] | – | – | – | responders at 25 mg/kg (0.25 h, 15 Min.): 20%; responders at 75 mg/kg (0.25 h, 15 Min.): 20%; responders at 25 mg/kg (0.5 h, 30 Min.): 20%; responders at 75 mg/kg (0.5 h, 30 Min.): 10%; responders at 25 mg/kg (1 h, 60 Min): 20%; responders at 75 mg/kg (1 h, 60 Min): 10% |
| Cc1ccc(-c2nnc(C)nc2-c2ccc(C)cc2)cc1 [Example 78, 3-methyl-5,6-bis-(4'-methylphenyl)-1,2,4-triazine] | 50 | 80 | 50 | responders at 50 mg/kg (0.25 h, 15 Min.): 20%; responders at 50 mg/kg (0.5 h, 30 Min.): 20%; responders at 50 mg/kg (1 h, 60 Min): 20% |
| Cc1nnc(S(C)(=O)=O)nc1C [Example 79, 3-methylsulfonyl-5,6-dimethyl-1,2,4-triazine] | – | 30 | 30 | – |
| COc1ccc(-c2nnc(SC)nc2-c2ccc(OC)c(OC)c2)cc1OC [Example 80, 3-methylthio-5,6-bis(3',4'-dimethoxyphenyl)-1,2,4-triazine] | 10 | 10 | – | – |
| c1ccc(-c2nnc(-c3ccccn3)nc2-c2ccccc2)cc1 [Example 81, 3-(2'-pyridyl)-5,6-diphenyl-1,2,4-triazine] | 10 | 20 | – | – |

| SMILES | responders at 100 mg/kg (0.25 h, 15 Min.) [%] | responders at 100 mg/kg (0.5 h, 30 Min.) [%] | responders at 100 mg/kg (1 h, 60 Min) [%] | further results |
| --- | --- | --- | --- | --- |
| COc1ncc(-c2ccccc2)nn1 [Example 82, 3-methoxy-6-phenyl-1,2,4-triazine] | – | – | – | responders at 25 mg/kg (0.25 h, 15 Min.): 10%; responders at 50 mg/kg (0.25 h, 15 Min.): 10%; responders at 50 mg/kg (0.5 h, 30 Min.): 10% |
| COc1cc(-c2cnnc(SC)n2)ccc1OCc1ccccc1 [Example 83, 3-methylthio-5-(3'-methoxy-4'-benzyloxyphenyl)-1,2,4-triazine] | 10 | – | – | – |
| CSc1nncc(-c2c3ccccc3cc3ccccc23)n1 [Example 84, 3-methylthio-5-(9'-anthracenyl)-1,2,4-triazine] | – | 10 | 20 | – |
| COc1nncc(-c2c3ccccc3cc3ccccc23)n1 [Example 85, 3-methoxy-5-(9'-anthracenyl)-1,2,4-triazine] | 10 | – | – | – |
| CSc1nncc(-c2ccc3c(c2)OCO3)n1 [Example 86, 3-methylthio-5-(3',4'-methylenedioxyphenyl)-1,2,4-triazine] | 20 | – | – | – |
| CSc1nncc(C(c2ccccc2)c2ccccc2)n1 [Example 87, 3-methylthio-5-diphenylmethyl-1,2,4-triazine] | 10 | – | 10 | – |
| CCOc1ccc(-c2cnnc(SC)n2)cc1 [Example 88, 3-methylthio-5-(4'-ethoxyphenyl)-1,2,4-triazine] | 10 | – | – | – |
| COc1nncc(-c2c(C)cc(C)cc2C)n1 [Example 89, 3-methoxy-5-(2',4',6'-trimethylphenyl)-1,2,4-triazine] | 10 | – | 10 | – |
| Oc1nncc(-c2ccccc2)n1 [Example 90, 3-hydroxy-5-phenyl-1,2,4-triazine] | – | – | 20 | – |
| COc1ccc(-c2cnnc(OC)n2)cc1 [Example 91, 3-methoxy-5-(4'-methoxyphenyl)-1,2,4-triazine] | 30 | 10 | – | – |
| COc1nnc(-c2ccc(OC)c(OC)c2)c(-c2ccc(OC)c(OC)c2)n1 [Example 92, 3-methoxy-5,6-bis(3',4'-dimethoxyphenyl)-1,2,4-triazine] | 10 | 10 | – | – |
| COc1ccc(-c2nnc(SC)nc2-c2ccc(OC)cc2)cc1 [Example 93, 3-methylthio-5,6-bis(4'-methoxyphenyl)-1,2,4-triazine] | 20 | 30 | 30 | – |
| CC(C)Oc1nnc(-c2ccccc2)c(-c2ccccc2)n1 [Example 95, 3-isopropoxy-5,6-diphenyl-1,2,4-triazine] | 10 | 10 | 20 | – |
| COc1nnc(-c2ccc(Cl)cc2)c(-c2ccc(Cl)cc2)n1 [Example 96, 3-methoxy-5,6-bis(4'-chlorophenyl)-1,2,4-triazine] | – | 30 | 10 | – |
| CC(N)C(=O)NNc1nncc(-c2ccc(Cl)cc2)n1 (stereo not shown) [Example 114, N2-(5-p-chlorophenyl-1,2,4-triazin-3-yl) alanine hydrazide (dihydrobromide hydrate)] | – | – | – | responders at 50 mg/kg (0.25 h, 15 Min.): 50%; responders at 50 mg/kg (0.5 h, 30 Min.): 50%; responders at 50 mg/kg (1 h, 60 Min): 60% |
| NC(Cc1ccccc1)C(=O)NNc1nncc(-c2ccccc2)n1 (stereo not shown) [Example 116, N2-(5-phenyl-1,2,4-triazin-3-yl) phenylalanine hydrazide (dihydrobromide hydrate)] | 30 | 60 | 60 | – |
